The source made the active and inactive calls. The rule behind the calls is not given here.
Assays:
[1] = molecular target: T1, Beta-secretase 1 (Homo sapiens, UniProt P56817)
Description: Inhibition of purified human BACE1 by FRET assay

[2] = molecular target: Cathepsin D (Homo sapiens, UniProt P07339)
Description: Inhibition of cathepsin-D (unknown origin)

[3] = molecular target: T1, Beta-secretase 1; assay: Inhibition of BACE1-mediated amyloid beta 40 production in HEK293-APPswe/lon cells by whole cell assay; assay type: cell-based
[4] = system: Rattus norvegicus; assay: Reduction of amyloid beta 40 level in rat plasma at 30 mg/kg, po relative to control; assay type: functional; design: scale not given: the % may be the effect or the level left
[5] = molecular target: T1, Beta-secretase 1; assay: Inhibition of BACE1-mediated amyloid beta 40 production in HEK293-APPswe/lon cells by whole cell assay in presence of P-gp inhibitor; assay type: cell-based
[6] = species on record: Mus musculus; assay: Reduction of cortical amyloid beta 40 level in CRND8-APP mouse model; assay type: functional, organism-based
[7] = in vivo; conditions: rat, plasma, sc, 10 mg/kg

Chain of Cathepsin D (P07339 65-162 limits assumed): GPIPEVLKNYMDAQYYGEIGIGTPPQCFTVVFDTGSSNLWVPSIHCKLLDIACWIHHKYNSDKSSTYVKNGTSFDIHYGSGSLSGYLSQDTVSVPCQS
Chain of Cathepsin D (P07339 169-412 limits assumed): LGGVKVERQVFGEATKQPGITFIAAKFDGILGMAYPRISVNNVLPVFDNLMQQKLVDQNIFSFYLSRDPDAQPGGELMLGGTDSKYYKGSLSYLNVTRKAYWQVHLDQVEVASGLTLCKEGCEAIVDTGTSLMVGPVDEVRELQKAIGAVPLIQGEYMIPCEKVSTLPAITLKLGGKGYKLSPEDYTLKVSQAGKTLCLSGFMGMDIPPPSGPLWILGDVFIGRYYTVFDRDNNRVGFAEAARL
T1 sequence (P56817 whole entry): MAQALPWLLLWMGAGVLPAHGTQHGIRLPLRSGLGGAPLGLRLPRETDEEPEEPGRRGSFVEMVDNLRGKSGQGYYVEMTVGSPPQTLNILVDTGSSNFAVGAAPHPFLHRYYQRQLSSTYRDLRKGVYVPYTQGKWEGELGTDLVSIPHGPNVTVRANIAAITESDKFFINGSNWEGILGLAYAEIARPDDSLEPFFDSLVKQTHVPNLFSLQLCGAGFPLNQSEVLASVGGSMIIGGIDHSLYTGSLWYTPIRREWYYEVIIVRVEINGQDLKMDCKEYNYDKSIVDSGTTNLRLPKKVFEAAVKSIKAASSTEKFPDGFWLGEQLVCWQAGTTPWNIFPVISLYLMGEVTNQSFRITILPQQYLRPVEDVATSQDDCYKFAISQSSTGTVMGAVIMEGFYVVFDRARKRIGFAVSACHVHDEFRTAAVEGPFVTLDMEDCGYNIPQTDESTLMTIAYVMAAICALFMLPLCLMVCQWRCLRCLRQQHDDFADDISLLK

SMILES	Ki [1]	Ki [2]	other results
CCCCC(=O)N1CC[C@H](C[C@@]2(CCC3CCCCC3)NC(=N)N(C)C2=O)C1	0.49 µM	23 µM	–
CCCCC(=O)N1CCC[C@@H](C[C@@]2(CCC3CCCCC3)NC(=N)N(C)C2=O)C1	17 µM	28 µM	–
CN1C(=N)N[C@](CCC2CCCCC2)(C[C@@H]2CCCN(C(=O)OC(C)(C)C)C2)C1=O	41 µM	33 µM	–
CCCCC(=O)N1CCC[C@H](C[C@@]2(CCC3CCCCC3)NC(=N)N(C)C2=O)C1	3.2 µM	44 µM	–
CN1C(=N)N[C@](CCC2CCCCC2)(C[C@H]2CCCNC2)C1=O	8.5 µM	> 100 µM	–
CCCCCN1CCC[C@H](C[C@@]2(CCC3CCCCC3)NC(=N)N(C)C2=O)C1	7.6 µM	> 100 µM	–
CCCCC(=O)N1CC[C@@H](C[C@@]2(CCC3CCCCC3)NC(=N)N(C)C2=O)C1	17.4 µM	–	–
CN1C(=N)N[C@](CCC2CCCCC2)(C[C@H]2CCCN(C(=O)OC(C)(C)C)C2)C1=O	29 µM	> 100 µM	–
CN1C(=N)N[C@](CCC2CCCCC2)(C[C@@H]2CCCNC2)C1=O	66 µM	> 100 µM	–
CN1C(=N)N[C@](CCC2CCCCC2)(C[C@H]2CCC[C@@H](NC(=O)Nc3ccc(Cl)cc3)C2)C1=O	0.01 µM	> 100 µM	–
CN1C(=N)N[C@](CCC2CCCCC2)(C[C@H]2CCC[C@@H](NC3CCCCC3)C2)C1=O	0.23 µM	63.5 µM	–
CCCCS(=O)(=O)N1CCC[C@H](C[C@@]2(CCC3CCCCC3)NC(=N)N(C)C2=O)C1	6.3 µM	25.5 µM	–
CN1C(=N)N[C@](CCC2CCCCC2)(C[C@H]2CCC[C@@H](NCC3CC3)C2)C1=O	0.48 µM	53.3 µM	–
CN1C(=N)N[C@](CCC2CCCCC2)(C[C@H]2CCC[C@@H](NC(=O)Nc3ccc4ccccc4n3)C2)C1=O	0.022 µM	25 µM	EC50 [3]: 0.258 µM; Activity [4]: 55%; EC50 [5]: 0.11 µM; Activity [6]: inactive; AUC(0-t) at 6 h [7]: 0.306 µM·h

The remaining compounds from weak to strong by Ki [2], led by results:

Ki [1]	Ki [2]	SMILES	other results
–	8.5 µM	CN1C(=N)N[C@](CCC2CCCCC2)(C[C@@H]2CCCN(C(=O)CC3CCCC3)C2)C1=O	–
0.301 µM	8.5 µM	CN1C(=N)N[C@](CCC2CCCCC2)(C[C@H]2CCC[C@@H](NC(=O)Nc3ccccc3Cl)C2)C1=O	–
0.014 µM	7.5 µM	CN1C(=N)N[C@](CCC2CCCCC2)(C[C@H]2CCC[C@@H](NC(=O)Nc3cnc4ccccc4n3)C2)C1=O	–
0.003 µM	6.9 µM	CN1C(=N)N[C@](CCC2CCCCC2)(C[C@H]2CCC[C@@H](NC(=O)Nc3ccc(C#N)cc3)C2)C1=O	–
0.138 µM	6 µM	CN1C(=N)N[C@](CCC2CCCCC2)(C[C@H]2CCC[C@@H](NC(=O)NC3CCCCC3)C2)C1=O	–
0.13 µM	3.8 µM	CN1C(=N)N[C@](CCC2CCCCC2)(C[C@H]2CCC[C@@H](NC(=O)c3ccccc3)C2)C1=O	–
0.585 µM	3.5 µM	CN1C(=N)N[C@](CCC2CCCCC2)(C[C@H]2CCC[C@@H](NC(=O)Cc3ccccc3)C2)C1=O	–
8.5 µM	2.8 µM	CCCNC(=O)N1CCC[C@H](C[C@@]2(CCC3CCCCC3)NC(=N)N(C)C2=O)C1	–
0.01 µM	2.5 µM	COc1ccc(NC(=O)N[C@@H]2CCC[C@H](C[C@@]3(CCC4CCCCC4)NC(=N)N(C)C3=O)C2)cc1	–
0.276 µM	2.4 µM	COc1ccccc1NC(=O)N[C@@H]1CCC[C@H](C[C@@]2(CCC3CCCCC3)NC(=N)N(C)C2=O)C1	–
–	0.87 µM	CN1C(=N)N[C@](CCC2CCCCC2)(C[C@H]2CCCN(C(=O)CC3CCCC3)C2)C1=O	–

Reference: ChEMBL document CHEMBL3352601, “Discovery of potent iminoheterocycle BACE1 inhibitors” (Bioorg Med Chem Lett, 2014)
